Assays:
[1] = molecular target: T1, CHK1 (kinase domain) (Homo sapiens, UniProt O14757); test: CHK1 Ki determination, spectrophotometric coupled (pyruvate kinase/lactate dehydrogenase) assay; assay type: biochemical; settings: CHK-1 kinase domain; for percent inhibition (where no Ki data is available): inhibitor concentration not given; for Ki: 150 uM ATP, 125 uM Syntide 2
T1 construct: a solution containing 1 nM of CHK1 (kinase domain)
T1 sequence (O14757 9-265 limits assumed): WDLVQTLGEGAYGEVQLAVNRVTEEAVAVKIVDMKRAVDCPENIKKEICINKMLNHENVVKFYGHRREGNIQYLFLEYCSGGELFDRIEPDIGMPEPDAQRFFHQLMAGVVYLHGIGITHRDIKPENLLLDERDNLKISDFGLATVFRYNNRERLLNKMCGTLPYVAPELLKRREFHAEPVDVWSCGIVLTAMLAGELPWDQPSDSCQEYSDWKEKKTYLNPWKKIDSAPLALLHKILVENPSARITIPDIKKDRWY
Method in brief: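 The CHK1 kinase domain was pre-incubated with compound for 15 min, and the reaction was started with 125 uM Syntide 2 and 150 uM ATP. ADP formation was coupled through pyruvate kinase/lactate dehydrogenase to NADH oxidation, read as the A340 decrease. Kiapp was fitted with a tight-binding equation that accounts for enzyme concentration and ATP Km; some entries are % inhibition.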

[2] = system: HeLa cells; test: Histone H3 (Ser10) phosphorylation ELISA, abrogation of camptothecin-induced G2 arrest (CHK-1 cellular assay); assay type: cell-based; settings: Homo sapiens, HeLa, HeLa cells; camptothecin 8 hrs, then compound with nocodozole 16 hours; read-out: EC50
Method in brief: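 HeLa cells, or MiaPaCa-2 where marked, received camptothecin for 8 h, then compound with nocodazole for 16 h. Ser10-phosphorylated histone H3 in lysates was measured by ELISA with a biotinylated antibody, streptavidin-HRP and TMB. EC50 came from four-parameter sigmoid fits.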

| percent inhibition (where no Ki data is available) [1] | EC50 [2] | Ki [1] | Structure (SMILES) |
| --- | --- | --- | --- |
| 18.3%^ | ≥ 10000 nM |  | C[C@H]1NCCC[C@@H]1Nc1cncc(-c2cnc3ccccn23)n1 [Example 132, 6-imidazo[1,2-a]pyridin-3-yl-N-[(2R,3S)-2-methylpiperidin-3-yl]pyrazin-2-amine] |
| 0% | ≥ 10000 nM |  | Cc1cn2c(-c3cncc(N[C@H]4CCCN[C@@H]4C)n3)cnc2s1 [Example 134, 6-(2-methylimidazo[2,1-b][1,3]thiazol-5-yl)-N-[(2R,3S)-2-methylpiperidin-3-yl]pyrazin-2-amine] |
|  | 966 nM | 52 nM | CC(Oc1ccn2c(-c3cncc(N[C@@H]4CCNC4)n3)cnc2c1)C(F)(F)F (stereo partly drawn) [Example 136, N-[(3R)-pyrrolidin-3-yl]-6-[7-(2,2,2-trifluoro-1-methylethoxy)imidazo[1,2-a]pyridin-3-yl]pyrazin-2-amine] |
|  | ≥ 10000 nM | 9.7 nM | C[C@@H]1NCCC[C@@H]1Nc1cncc(-c2cnc3ccccn23)n1 [Example 139, 6-imidazo[1,2-a]pyridin-3-yl-N-[(2S,3S)-2-methylpiperidin-3-yl]pyrazin-2-amine] |
|  | 19.2 nM | 1.07 nM | Cc1cn2c(-c3cncc(N[C@@H]4CNC[C@@H]4C)n3)cnc2s1 [Example 140, 6-(2-methylimidazo[2,1-b][1,3]thiazol-5-yl)-N-[(3S,4S)-4-methylpyrrolidin-3-yl]pyrazin-2-amine] |
|  | 77.8 nM | 10 nM | C[C@H]1CNC[C@H]1Nc1cncc(-c2cnc3ccc(F)cn23)n1 [Example 141, 6-(6-fluoroimidazo[1,2-a]pyridin-3-yl)-N-[(3S,4S)-4-methylpyrrolidin-3-yl]pyrazin-2-amine] |
|  | 119 nM | 1.11 nM | C[C@@H]1C[C@@H](Nc2cncc(-c3cnn4cc(Cl)ccc34)n2)CN1 [Example 143, 6-(6-chloropyrazolo[1,5-a]pyridin-3-yl)-N-[(3R,5R)-5-methylpyrrolidin-3-yl]pyrazin-2-amine] |
|  | 389 nM | 8.1 nM | C[C@@H]1C[C@@H](Nc2cncc(-c3cnn4ccccc34)n2)CN1 [Example 145, N-[(3R,5R)-5-methylpyrrolidin-3-yl]-6-pyrazolo[1,5-a]pyridin-3-ylpyrazin-2-amine] |
|  | 493 nM | 19 nM | C[C@@H]1CC[C@@H](Nc2cncc(-c3cnc4cnccn34)n2)CN1 [Example 146, 6-imidazo[1,2-a]pyrazin-3-yl-N-[(3R,6R)-6-methylpiperidin-3-yl]pyrazin-2-amine] |
|  | 295 nM | 12.9 nM | c1cn2c(-c3cncc(N[C@@H]4C[C@@H]5CN[C@H]4C5)n3)cnc2cn1 [Example 147, (1S,4R,6R)-N-(6-imidazo[1,2-a]pyrazin-3-ylpyrazin-2-yl)-2-azabicyclo[2.2.1]heptan-6-amine] |
|  | ≥ 10000 nM | 6.77 nM | CCOc1ccc2ncn(-c3cncc(N[C@@H]4CCCNC4)n3)c2c1 [Example 149, 6-(6-ethoxy-1H-benzimidazol-1-yl)-N-[(3R)-piperidin-3-yl]pyrazin-2-amine] |
|  | 284 nM | 5.91 nM | CC(C)Oc1ccc2ncn(-c3cncc(N[C@@H]4CCCNC4)n3)c2c1 [Example 150, 6-(6-isopropoxy-1H-benzimidazol-1-yl)-N-[(3R)-piperidin-3-yl]pyrazin-2-amine] |
|  | 78.7 nM | 1.07 nM | OCc1ccc2ncc(-c3cncc(N[C@@H]4CCCNC4)n3)n2c1 [Example 151, (3-{6-[(3R)-piperidin-3-ylamino]pyrazin-2-yl}imidazo[1,2-a]pyridin-6-yl)methanol] |

| Structure (SMILES) | percent inhibition (where no Ki data is available) [1] | EC50 [2] | Ki [1] |
| --- | --- | --- | --- |
| CC(C)(C)CCOc1ccn2c(-c3cncc(N[C@@H]4CCCNC4)n3)cnc2c1 [Example 148, 6-[7-(3,3-dimethylbutoxy)imidazo[1,2-a]pyridin-3-yl]-N-[(3R)-piperidin-3-yl]pyrazin-2-amine] | 104%^ | ≥ 10000 nM |  |

— US8518952B2, “6 substituted 2-heterocyclylamino pyrazine compounds as CHK-1 inhibitors” (Pfizer Inc., priority 2008, dated 2013)
